In ChEMBL document CHEMBL1201862, “PubChem BioAssay data set” (2004):
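Method: 48-hour compound exposure of cells in 96-well plates, five concentrations, linear interpolation of endpoints. Here, GI50 denotes the concentration required for 50% inhibition of growth.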 Calls of active or inactive are those of the source. Rule as the data show it: active = GI50 up to about 1.1 µM and inactive = higher.

Assays:
Assay in all cases: growth of human tumour cells (NCI), 48 h
786-0 = tested on: 786-0
A498 = tested on: A498
A549 = tested on: A549
ACHN = tested on: ACHN
BT-549 = tested on: BT-549
CAKI-1 = tested on: CAKI-1
CCRF-CEM = tested on: CCRF-CEM
COLO 205 = tested on: COLO 205
DU-145 = tested on: DU-145
EKVX = tested on: EKVX
HCC 2998 = tested on: HCC 2998
HCT-116 = tested on: HCT-116
HCT-15 = tested on: HCT-15
HL-60 = tested on: HL-60
HOP-62 = tested on: HOP-62
HOP-92 = tested on: HOP-92
HT-29 = tested on: HT-29
Hs-578T = tested on: Hs-578T
IGROV-1 = tested on: IGROV-1
K562 = tested on: K562
KM12 = tested on: KM12
LOX IMVI = tested on: LOX IMVI
M14 = tested on: M14
MCF7 = tested on: MCF7
MDA-N = tested on: MDA-N
MOLT-4 = tested on: MOLT-4
Malme-3M = tested on: Malme-3M
NCI-H226 = tested on: NCI-H226
NCI-H23 = tested on: NCI-H23
NCI-H460 = tested on: NCI-H460
NCI-H522 = tested on: NCI-H522
NCI/ADR-RES = tested on: NCI/ADR-RES
OVCAR-3 = tested on: OVCAR-3
OVCAR-4 = tested on: OVCAR-4
OVCAR-5 = tested on: OVCAR-5
OVCAR-8 = tested on: OVCAR-8
PC-3 = tested on: PC-3
RPMI-8226 = tested on: RPMI-8226
RXF 393 = tested on: RXF 393
SF-268 = tested on: SF-268
SF-295 = tested on: SF-295
SF-539 = tested on: SF-539
SK-MEL-28 = tested on: SK-MEL-28
SK-MEL-2 = tested on: SK-MEL-2
SK-MEL-5 = tested on: SK-MEL-5
SK-OV-3 = tested on: SK-OV-3
SN12C = tested on: SN12C
SNB-19 = tested on: SNB-19
SNB-75 = tested on: SNB-75
SR = tested on: SR
SW-620 = tested on: SW-620
T47D = tested on: T47D
TK-10 = tested on: TK-10
U-251 = tested on: U-251
UACC-257 = tested on: UACC-257
UO-31 = tested on: UO-31
MDA-MB-231 = tested on: MDA-MB-231
MDA-MB-435 = tested on: MDA-MB-435
UACC-62 = tested on: UACC-62

## Cc1cc(S(=O)(=O)Nc2nc(N)n[nH]2)c(SCC(=O)O)cc1Cl
786-0
  GI50: > 10 µM (inactive)
A498
  GI50: > 10 µM (inactive)
A549
  GI50: > 10 µM (inactive)
ACHN
  GI50: > 10 µM (inactive)
BT-549
  GI50: > 10 µM (inactive)
CAKI-1
  GI50: > 10 µM (inactive)
CCRF-CEM
  GI50: > 10 µM (inactive)
COLO 205
  GI50: > 10 µM (inactive)
DU-145
  GI50: > 10 µM (inactive)
EKVX
  GI50: > 10 µM (inactive)
HCC 2998
  GI50: > 10 µM (inactive)
HCT-116
  GI50: > 10 µM (inactive)
HCT-15
  GI50: > 10 µM
HL-60
  GI50: > 10 µM (inactive)
HOP-62
  GI50: > 10 µM (inactive)
HOP-92
  GI50: > 10 µM (inactive)
HT-29
  GI50: > 10 µM (inactive)
Hs-578T
  GI50: > 10 µM (inactive)
IGROV-1
  GI50: > 10 µM (inactive)
K562
  GI50: > 10 µM (inactive)
KM12
  GI50: > 10 µM (inactive)
LOX IMVI
  GI50: > 10 µM (inactive)
M14
  GI50: > 10 µM (inactive)
MCF7
  GI50: > 10 µM (inactive)
MDA-N
  GI50: > 10 µM (inactive)
MOLT-4
  GI50: > 10 µM (inactive)
Malme-3M
  GI50: > 10 µM (inactive)
NCI-H226
  GI50: > 10 µM (inactive)
NCI-H23
  GI50: > 10 µM (inactive)
NCI-H460
  GI50: > 10 µM (inactive)
NCI-H522
  GI50: > 10 µM (inactive)
NCI/ADR-RES
  GI50: > 10 µM (inactive)
OVCAR-3
  GI50: > 10 µM (inactive)
OVCAR-4
  GI50: > 10 µM (inactive)
OVCAR-5
  GI50: > 10 µM (inactive)
OVCAR-8
  GI50: > 10 µM (inactive)
PC-3
  GI50: > 10 µM (inactive)
RPMI-8226
  GI50: > 10 µM (inactive)
RXF 393
  GI50: > 10 µM (inactive)
SF-268
  GI50: > 10 µM (inactive)
SF-295
  GI50: > 10 µM (inactive)
SF-539
  GI50: > 10 µM (inactive)
SK-MEL-28
  GI50: > 10 µM (inactive)
SK-MEL-2
  GI50: > 10 µM (inactive)
SK-MEL-5
  GI50: > 10 µM (inactive)
SK-OV-3
  GI50: > 10 µM (inactive)
SN12C
  GI50: > 10 µM (inactive)
SNB-19
  GI50: > 10 µM (inactive)
SNB-75
  GI50: > 10 µM (inactive)
SR
  GI50: > 10 µM (inactive)
SW-620
  GI50: > 10 µM (inactive)
T47D
  GI50: > 10 µM (inactive)
TK-10
  GI50: > 10 µM (inactive)
U-251
  GI50: > 10 µM (inactive)
UACC-257
  GI50: > 10 µM (inactive)
UO-31
  GI50: > 10 µM (inactive)

## N#Cc1c(N)c(C#N)c2c(c1-c1ccc(Cl)cc1)COc1ccccc1-2
786-0
  GI50: 3.02 µM (inactive)
A498
  GI50: 18.2 µM (inactive)
A549
  GI50: 14.5 µM (inactive)
ACHN
  GI50: 13.7 µM (inactive)
BT-549
  GI50: 29.9 µM (inactive)
CCRF-CEM
  GI50: 16.5 µM (inactive)
COLO 205
  GI50: 48 µM (inactive)
DU-145
  GI50: 21.6 µM (inactive)
EKVX
  GI50: 9.14 µM (inactive)
HCC 2998
  GI50: 17.4 µM (inactive)
HCT-116
  GI50: 12.2 µM (inactive)
HCT-15
  GI50: 31.8 µM
HL-60
  GI50: 25.4 µM (inactive)
HOP-62
  GI50: 14.9 µM (inactive)
HOP-92
  GI50: 15.3 µM (inactive)
HT-29
  GI50: 13.2 µM (inactive)
IGROV-1
  GI50: 20.4 µM (inactive)
K562
  GI50: 16.5 µM (inactive)
KM12
  GI50: 28.6 µM (inactive)
LOX IMVI
  GI50: 29.7 µM (inactive)
M14
  GI50: 38.6 µM (inactive)
MCF7
  GI50: 29 µM (inactive)
MDA-MB-231
  GI50: 24.2 µM (inactive)
MDA-MB-435
  GI50: 31.7 µM (inactive)
MDA-N
  GI50: 18.5 µM (inactive)
MOLT-4
  GI50: 11.4 µM (inactive)
Malme-3M
  GI50: 22 µM (inactive)
NCI-H226
  GI50: 32.1 µM (inactive)
NCI-H23
  GI50: 16.7 µM (inactive)
NCI-H460
  GI50: 30.3 µM (inactive)
NCI/ADR-RES
  GI50: 20.9 µM (inactive)
OVCAR-3
  GI50: 13.7 µM (inactive)
OVCAR-4
  GI50: 11.1 µM (inactive)
OVCAR-5
  GI50: 24.9 µM (inactive)
PC-3
  GI50: 16.8 µM (inactive)
RPMI-8226
  GI50: 3.27 µM (inactive)
RXF 393
  GI50: 15.4 µM (inactive)
SF-268
  GI50: 29.4 µM (inactive)
SF-539
  GI50: 18.5 µM (inactive)
SK-MEL-28
  GI50: 16.5 µM (inactive)
SK-MEL-2
  GI50: 22 µM (inactive)
SK-MEL-5
  GI50: 22 µM (inactive)
SK-OV-3
  GI50: 18.4 µM (inactive)
SN12C
  GI50: 12.4 µM (inactive)
SNB-19
  GI50: 14.5 µM (inactive)
SR
  GI50: 11.4 µM (inactive)
SW-620
  GI50: 32.6 µM (inactive)
T47D
  GI50: 18.8 µM (inactive)
TK-10
  GI50: 14.6 µM (inactive)
U-251
  GI50: 14.7 µM (inactive)
UACC-257
  GI50: 44.1 µM (inactive)
UACC-62
  GI50: 30.1 µM (inactive)
UO-31
  GI50: 4.04 µM (inactive)
